Laboratory results as given in BindingDB's records for patent US20240335442 (Eurofarma, 2024).

Legend:
[1] = target: Sodium channel protein type 9 subunit alpha (Homo sapiens, UniProt Q15858); assay: In Vitro Assay (Protocol 2)
Description: (§1) Compounds of Formula (I), were diluted in eight concentrations in the extracellular solution composed of physiological saline, buffered with HEPES (mM): NaCl, 137; KCl, 4; CaCl2, 3.8; MgCl2, 1; HEPES, 10; Glucose, 10; pH 7.4. […], 50; CsF, 90; MgCl2, 5; EGTA, 5; HEPES, 10; pH 7.2. The duration of exposure of each compound with the cells expressing Nav 1.7 or Nav 1.8 was at least five minutes and the assays were performed at room temperature.The measurements of the sodium currents of Nav 1.8 and Nav 1.7 were obtained using the voltage protocols described below: A holding voltage of-100 mV was established followed by an inactivation voltage step at −40 mV for 8 seconds, followed by a −100 mV step for 20 ms, followed by a 20 ms step for 10 mV for Nav 1.8 or 0 mV for Nav 1.7 (TP1A) before returning to the holding voltage of-100 mV. Protocols were repeated at a frequency of 0.05 Hz and current amplitude was quantified over the TP1A phase log.

[2] = target: Sodium channel protein type 10 subunit alpha (Homo sapiens, UniProt Q9Y5Y9); assay: In Vitro Assay (Protocol 2)
Chain of Sodium channel protein type 10 subunit alpha (Q9Y5Y9 whole entry): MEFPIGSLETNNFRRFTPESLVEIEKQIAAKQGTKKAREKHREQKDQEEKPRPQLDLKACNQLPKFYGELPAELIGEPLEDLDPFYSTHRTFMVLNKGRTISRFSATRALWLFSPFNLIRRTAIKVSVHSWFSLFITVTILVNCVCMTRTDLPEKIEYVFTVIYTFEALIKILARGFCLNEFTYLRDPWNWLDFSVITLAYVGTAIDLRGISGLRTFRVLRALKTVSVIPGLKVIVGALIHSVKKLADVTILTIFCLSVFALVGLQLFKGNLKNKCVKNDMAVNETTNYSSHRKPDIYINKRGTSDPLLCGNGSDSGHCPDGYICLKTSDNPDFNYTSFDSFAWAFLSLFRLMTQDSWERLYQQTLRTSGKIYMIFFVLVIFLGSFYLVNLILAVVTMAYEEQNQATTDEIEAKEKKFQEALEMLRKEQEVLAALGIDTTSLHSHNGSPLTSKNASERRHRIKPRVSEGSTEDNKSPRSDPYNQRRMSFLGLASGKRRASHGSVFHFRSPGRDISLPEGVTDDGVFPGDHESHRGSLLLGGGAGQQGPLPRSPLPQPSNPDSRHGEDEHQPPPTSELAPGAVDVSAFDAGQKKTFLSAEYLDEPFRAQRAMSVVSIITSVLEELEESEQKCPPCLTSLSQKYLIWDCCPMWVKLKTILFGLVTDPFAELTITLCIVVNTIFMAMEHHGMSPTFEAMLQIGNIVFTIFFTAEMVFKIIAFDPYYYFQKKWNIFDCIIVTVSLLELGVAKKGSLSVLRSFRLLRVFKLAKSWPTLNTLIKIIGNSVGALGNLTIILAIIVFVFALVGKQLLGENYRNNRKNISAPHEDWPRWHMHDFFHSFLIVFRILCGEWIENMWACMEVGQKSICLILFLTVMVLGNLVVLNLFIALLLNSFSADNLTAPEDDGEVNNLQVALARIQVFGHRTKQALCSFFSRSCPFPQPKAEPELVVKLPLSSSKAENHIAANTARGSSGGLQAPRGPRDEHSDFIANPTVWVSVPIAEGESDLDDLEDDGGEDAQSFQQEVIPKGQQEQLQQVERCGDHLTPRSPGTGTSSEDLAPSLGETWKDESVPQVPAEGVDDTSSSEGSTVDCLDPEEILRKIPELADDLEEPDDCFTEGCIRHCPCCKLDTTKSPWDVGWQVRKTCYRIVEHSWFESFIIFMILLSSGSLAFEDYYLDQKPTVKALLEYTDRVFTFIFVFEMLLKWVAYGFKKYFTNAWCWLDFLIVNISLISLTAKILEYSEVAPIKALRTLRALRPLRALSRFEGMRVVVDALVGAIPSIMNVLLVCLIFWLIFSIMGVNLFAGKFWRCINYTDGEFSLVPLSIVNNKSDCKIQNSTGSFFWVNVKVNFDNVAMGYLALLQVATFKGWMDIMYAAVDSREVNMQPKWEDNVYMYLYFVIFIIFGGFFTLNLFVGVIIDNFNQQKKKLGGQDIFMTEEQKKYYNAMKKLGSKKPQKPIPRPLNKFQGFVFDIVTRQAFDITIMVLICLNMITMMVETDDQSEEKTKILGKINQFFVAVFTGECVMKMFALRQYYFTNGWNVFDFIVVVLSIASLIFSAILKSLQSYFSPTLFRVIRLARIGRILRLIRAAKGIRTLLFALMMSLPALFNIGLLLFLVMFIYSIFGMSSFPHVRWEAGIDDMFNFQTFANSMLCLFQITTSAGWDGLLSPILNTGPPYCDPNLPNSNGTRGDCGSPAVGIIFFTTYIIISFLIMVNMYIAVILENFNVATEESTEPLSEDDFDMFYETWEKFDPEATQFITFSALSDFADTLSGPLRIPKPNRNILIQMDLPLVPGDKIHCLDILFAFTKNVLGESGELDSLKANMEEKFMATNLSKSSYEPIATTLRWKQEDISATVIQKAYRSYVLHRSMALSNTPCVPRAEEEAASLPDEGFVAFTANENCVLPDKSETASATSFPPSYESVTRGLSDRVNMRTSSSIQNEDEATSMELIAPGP
Description: as §1

Chain of Sodium channel protein type 9 subunit alpha (Q15858 whole entry): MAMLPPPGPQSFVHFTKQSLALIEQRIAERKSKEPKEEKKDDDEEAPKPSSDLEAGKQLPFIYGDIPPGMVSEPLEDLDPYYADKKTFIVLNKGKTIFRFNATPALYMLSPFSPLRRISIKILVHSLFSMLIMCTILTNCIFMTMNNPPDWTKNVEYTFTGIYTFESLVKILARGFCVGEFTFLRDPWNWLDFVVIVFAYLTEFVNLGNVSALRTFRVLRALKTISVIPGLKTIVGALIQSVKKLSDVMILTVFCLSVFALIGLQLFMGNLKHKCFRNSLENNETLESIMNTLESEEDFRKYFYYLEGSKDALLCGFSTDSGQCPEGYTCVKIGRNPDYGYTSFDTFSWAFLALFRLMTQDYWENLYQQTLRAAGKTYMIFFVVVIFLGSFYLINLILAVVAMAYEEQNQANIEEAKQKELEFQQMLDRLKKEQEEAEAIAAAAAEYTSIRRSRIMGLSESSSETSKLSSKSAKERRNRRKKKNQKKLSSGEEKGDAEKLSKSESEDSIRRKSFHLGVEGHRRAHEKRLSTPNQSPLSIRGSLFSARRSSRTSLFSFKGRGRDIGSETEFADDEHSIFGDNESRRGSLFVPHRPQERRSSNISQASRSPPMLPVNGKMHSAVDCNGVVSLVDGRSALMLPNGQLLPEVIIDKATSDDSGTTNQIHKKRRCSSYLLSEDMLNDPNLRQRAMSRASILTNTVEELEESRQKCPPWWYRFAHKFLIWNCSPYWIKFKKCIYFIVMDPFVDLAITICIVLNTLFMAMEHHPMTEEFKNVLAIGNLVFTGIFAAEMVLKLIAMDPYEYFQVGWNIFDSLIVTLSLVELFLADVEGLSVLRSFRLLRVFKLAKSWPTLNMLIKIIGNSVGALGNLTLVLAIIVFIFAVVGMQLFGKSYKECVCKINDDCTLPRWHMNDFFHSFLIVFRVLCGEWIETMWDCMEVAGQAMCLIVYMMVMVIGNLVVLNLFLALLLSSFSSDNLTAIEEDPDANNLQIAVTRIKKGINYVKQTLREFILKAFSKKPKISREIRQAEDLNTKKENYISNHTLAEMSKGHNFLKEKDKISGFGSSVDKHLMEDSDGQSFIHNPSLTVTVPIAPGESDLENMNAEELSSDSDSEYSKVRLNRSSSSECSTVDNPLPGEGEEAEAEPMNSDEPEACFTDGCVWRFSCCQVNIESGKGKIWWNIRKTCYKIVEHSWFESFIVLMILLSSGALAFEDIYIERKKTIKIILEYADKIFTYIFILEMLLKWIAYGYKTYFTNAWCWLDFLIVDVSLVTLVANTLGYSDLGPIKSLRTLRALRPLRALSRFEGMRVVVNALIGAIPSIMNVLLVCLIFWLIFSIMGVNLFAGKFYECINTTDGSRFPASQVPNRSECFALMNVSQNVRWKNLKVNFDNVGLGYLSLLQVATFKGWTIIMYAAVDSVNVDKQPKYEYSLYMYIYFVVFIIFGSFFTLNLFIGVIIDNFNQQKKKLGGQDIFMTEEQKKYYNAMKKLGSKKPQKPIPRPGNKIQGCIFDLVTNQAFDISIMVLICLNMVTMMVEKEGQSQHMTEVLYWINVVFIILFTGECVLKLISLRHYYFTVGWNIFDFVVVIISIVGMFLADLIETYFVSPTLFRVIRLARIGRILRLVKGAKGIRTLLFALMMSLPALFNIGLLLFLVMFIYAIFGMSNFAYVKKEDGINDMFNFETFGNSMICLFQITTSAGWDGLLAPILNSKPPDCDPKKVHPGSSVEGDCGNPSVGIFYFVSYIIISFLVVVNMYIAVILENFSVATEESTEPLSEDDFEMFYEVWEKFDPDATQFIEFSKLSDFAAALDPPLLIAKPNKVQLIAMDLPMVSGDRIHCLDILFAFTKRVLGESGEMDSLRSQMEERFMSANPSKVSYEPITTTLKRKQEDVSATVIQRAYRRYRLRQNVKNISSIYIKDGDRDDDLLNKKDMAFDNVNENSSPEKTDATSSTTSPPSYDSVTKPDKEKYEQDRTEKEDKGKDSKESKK

Row | SMILES | IC50 [1] | IC50 [2]
1 | CCOc1ccccc1/C=N/NC(=O)c1cncc(-c2ccc(OC)cc2)n1 [US20240335442, Compound 43] | 3920 nM | 188 nM
2 | CCCOc1ccccc1/C=N/NC(=O)c1cncc(-c2ccc(OC)cc2)n1 [US20240335442, Compound 44] | 3620 nM | 163 nM
3 | COc1ccc(-c2cncc(C(=O)N/N=C/c3cc(OC)cc(OC)c3OC)n2)cc1 [US20240335442, Compound 80] | 1490 nM | 352 nM
4 | COc1ccc(-c2cncc(C(=O)N/N=C/c3cc(OC)c(OC)c(OC)c3)n2)cc1 [US20240335442, Compound 81] | > 10000 nM | > 1000 nM
5 | COc1ccc(Oc2nccnc2C(=O)N/N=C/c2cc(OC)cc(OC)c2)cc1 [US20240335442, Compound 129] | > 10000 nM | > 1000 nM
6 | CC(C)Oc1ccc(-c2cncc(C(=O)N/N=C/C3CCC(F)(F)CC3)n2)cc1 [US20240335442, Compound 176] | 400 nM | 456 nM
7 | COc1ccc(-c2cncc(C(=O)N/N=C/C3=C(C)CCCC3)n2)cc1 [US20240335442, Compound 197] | 778 nM | 162 nM
8 | CCOc1ccc(-c2cncc(C(=O)N/N=C/C3=C(C)CCCC3)n2)cc1 [US20240335442, Compound 198] | 367 nM | 24 nM
9 | CCOc1ccc(-c2cncc(C(=O)N/N=C/C3=C(C)CCCCC3)n2)cc1 [US20240335442, Compound 201] | 425 nM | 70 nM
10 | CCOc1ccc(-c2nc(C(=O)N/N=C/c3cc(OC)cc(OC)c3)cnc2C)cc1 [US20240335442, Compound 207] | > 10000 nM | 472 nM
11 | CCOc1ccc(-c2nc(C(=O)N/N=C/c3cc(OC)cc(OC)c3)cnc2CC)cc1 [US20240335442, Compound 208] | 1890 nM | 431 nM
12 | CCOc1ccc(-c2nc(C(=O)N/N=C/c3cc(OC)cc(OC)c3)cnc2OC)cc1 [US20240335442, Compound 211] | > 10000 nM | > 1000 nM

Next, values leading:

Row | IC50 [1] | IC50 [2] | SMILES
13 | 1830 nM | 289 nM | CCCOc1cc(/C=N/NC(=O)c2cncc(-c3ccc(OC)cc3)n2)cc(OCCC)c1 [US20240335442, Compound 68]
14 | 1430 nM | 517 nM | COc1ccc(-c2cncc(C(=O)N/N=C/c3cc(OC(C)C)cc(OC(C)C)c3)n2)cc1 [US20240335442, Compound 69]
15 | 10000 nM | 973 nM | COc1ccc(-c2cncc(C(=O)N/N=C/c3cc(F)cc(F)c3)n2)cc1 [US20240335442, Compound 70]
16 | 464 nM | 51.2 nM | COc1ccc(-c2cncc(C(=O)N/N=C/c3cc(C)cc(C)c3)n2)cc1 [US20240335442, Compound 75]
17 | 1910 nM | 116 nM | CCOc1ccc(-c2cncc(C(=O)N/N=C/c3cc(OC)cc(C(C)O)c3)n2)cc1 (centres undefined) [US20240335442, Compound 215]
